B1: B6H12: anti-CD47 antibody (B6H12, BD Biosciences) (antibody, V domains shown)
VH: EVQLVESGGDLVKPGGSLKLSCAASGFTFSGYGMSWVRQTPDKRLEWVATITSGGTYTYYPDSVKGRFTISRDNAKNTLYLQIDSLKSEDTAIYFCARSLAGNAMDYWGQGTSVTVSS
VL: DIVMTQSPATLSVTPGDRVSLSCRASQTISDYLHWYQQKSHESPRLLIKFASQSISGIPSRFSGSGSGSDFTLSINSVEPEDVGVYYCQNGHGFPRTFGGGTKLEIK
B2: Hu5F9-G4: humanized anti-CD47 antibody provided by the CD47 disease team at Stanford University (antibody, chains of the INN, looked up, V domains shown)
VH: QVQLVQSGAEVKKPGASVKVSCKASGYTFTNYNMHWVRQAPGQRLEWMGTIYPGNDDTSYNQKFKDRVTITADTSASTAYMELSSLRSEDTAVYYCARGGYRAMDYWGQGTLVTVSS
VL: DIVMTQSPLSLPVTPGEPASISCRSSQSIVYSNGNTYLGWYLQKPGQSPQLLIYKVSNRFSGVPDRFSGSGSGTDFTLKISRVEAEDVGVYYCFQGSHVPYTFGQGTKLEIK

Columns and labels:
[1] = system: SW620 cells; assay: FACS-based phagocytosis assay, mouse BMDMs with SW620 target cells; type: cell-based, human; details: for phagocytosis of tumor cells after treatment of macrophages with TLR agonist: SW620 (PBS-treated, Hu5F9-G4-treated or CD47KO), γc-/- or NSG mice, FIG. 6A-6B
Description: We performed phagocytosis assays by co-culturing mouse bone marrow-derived macrophages (BMDMs) and target human cancer cells to examine the efficacy of PrCR under different conditions. To induce phagocytosis, we blocked CD47 on a human colon cancer cell line (SW620) by either treating tumor cells with CD47 blocking antibodies or directly knocking it out.
(§1) Phagocytosis assay. FACS-based phagocytosis assays were performed to evaluate phagocytic abilities of macrophages. Macrophages were harvested after 6-8 days of differentiation and divided into FACS tubes or low-attachment 96-well plates, with 1-5×10^4 cells per well/tube. Target cells were added and mixed with macrophages, and incubated at 37° C. for 2 hrs with indicated conditions (antibody/drug treatment). For CD47 blockade, anti-CD47 (B6H12, BD Biosciences) or humanized anti-CD47 (Hu5F9-G4; provided by the CD47 disease team at Stanford University) antibodies were used. Cells were then incubated with PE cy7-conjugated anti-mouse F4/80 antibody to stain macrophages. After incubation, cells were washed with FACS buffer and resuspended with FACS buffer containing sytox blue to distinguish dead cells. Phagocytic index was examined by FACS analyses, and macrophages that phagocytosed target cells were F4/80+ and GFP+. Phagocytic index was calculated with the number of F4/80+GFP+ cells/divided by the number of F4/80+ cells. In each experiment, phagocytic indexes were normalized to the maximal indexes.
Alternatively, macrophages and target cells were mixed and cocultured in 24 well plates for 16-24 hrs with indicated conditions. Cells were collected from the plates by TrypLE and incubated with PE cy7-conjugated anti-mouse F4/80 antibody to stain for macrophages. After incubation, cells were washed with FACS buffer and resuspended with FACS buffer containing sytox blue and non-colored standard cells (293T cells were used as standard cells). Cells were then subjected to FACS analyses. Remaining target cells were normalized to standard cells (numbers of standard cells were known and equal in each sample) to evaluate the percentage of cells phagocytosed by macrophages during the incubation.

[2] = system: SW620 cells; assay: Phagocytosis assay, human PBMC-derived macrophages with SW620 target cells; type: cell-based; details: SW620 Control IgG- or B6H12-treated; FIG. 10D
Description: The cells were examined by flow cytometry analyses. Remaining target cells were used to evaluate efficacy of phagocytosis, with less remaining target cells representing stronger phagocytosis. […] Error bars represent standard deviation (FIGS. 10A, 10C and 10D).
Human peripheral blood-derived macrophages were generated as previously described.
Phagocytosis assay. FACS-based phagocytosis assays were performed to evaluate phagocytic abilities of macrophages. […] Target cells were added and mixed with macrophages, and incubated at 37° C. for 2 hrs with indicated conditions (antibody/drug treatment). For CD47 blockade, anti-CD47 (B6H12, BD Biosciences) or humanized anti-CD47 (Hu5F9-G4; provided by the CD47 disease team at Stanford University) antibodies were used. Cells were then incubated with PE cy7-conjugated anti-mouse F4/80 antibody to stain macrophages. After incubation, cells were washed with FACS buffer and resuspended with FACS buffer containing sytox blue to distinguish dead cells. Phagocytic index was examined by FACS analyses, and macrophages that phagocytosed target cells were F4/80+ and GFP+. Phagocytic index was calculated with the number of F4/80+GFP+ cells/divided by the number of F4/80+ cells. In each experiment, phagocytic indexes were normalized to the maximal indexes.

[3] = system: calreticulin (CRT); assay: Cell surface exposure of CRT on macrophages (cell surface biotinylation, flow cytometry); type: cell-based, mouse; details: for cell surface CRT on macrophages, cell surface biotinylation assay: immunoblots, FIG. 3A; for cell surface exposure of CRT on macrophages, flow cytometry: TLR agonist treatment, FIG. 3B, 10B
Description: Flow cytometry Analysis. Flow cytometry analyses were performed using a BD LSRFortessa. For staining, 2.5×10^5-10^6 cells were incubated with indicated antibodies (1:50-1:200) in FACS buffer (PBS with 2% fetal bovine serum) on ice for 30 minutes. Cells were then washed with FACS buffer and subjected to FACS analyses. For staining of macrophages, cells were first treated with Fc receptor blockers or a high concentration of isotype IgG control (5-10 times of indicated antibodies) to block non-specific binding of antibodies caused by the interaction of Fc domain and Fc receptors on macrophages.
Cell surface biotinylation. […] Cells were incubated with NHS-SS-Biotin (0.5 mg/ml) for 1 hr in PBS (pH8.0), and then rinsed with quench buffer (20 mM Tris-HCl, 120 mM NaCl, pH7.4), 100 mM Glycine in PBS, and PBS. Cells were lysed in lysis buffer (20 mM Tris-HCl, pH7.4, 150 mM NaCl, 2 mM EDTA, supplemented with 1% Triton X-100, protease inhibitor cocktail and phosphatase inhibitor cocktail). Cell lysate was incubated with neutravidin agarose resin for 4 hr at 4° C., and the resin was washed using lysis buffer. Biotin-labeled proteins were eluted with lysis buffer containing 2% SDS and 100 mM DTT, and subjected to SDS-PAGE and immunoblotting. Intracellular protein GAPDH was used as a negative control to confirm that only cell surface proteins were labeled by NHS-SS-Biotin.

[4] = system: HL60, Raji, PC3, MDA-MB-231 cells; assay: Phagocytosis assay, mouse BMDMs with multiple hematopoietic and solid tumor cells; type: cell-based, human; details: macrophages treated with TLR3, 4 and 7 agonists; FIGS. 6A-C and 7A-D
Source text: FIG. 7A-7D. Phagocytosis of HL60, Raji, PC-3, MDA-MB-231 is enhanced by TLR agonists. Phagocytosis assays showing TLR agonists enhanced phagocytosis of multiple human cancer cells, with different hematopoietic (HL60 and Raji) and solid tumor (PC3 and MDA-MB-231) cells (PBS- or Hu5F9-G4-treated) as target cells and BMDMs from NSG (HL60, Raji and PC3) or RAG2^−/−, γc^−/− (MDA-MB-231) mice. HL60: Promyelocytic leukemia; Raji: Burkitt's lymphoma; PC3: Prostate cancer; MDA-MB-231: Breast cancer. Error bars represent standard deviation (FIG. 7A-7D).
as §1

[5] = biological target: T1, Btk (Mus musculus, UniProt P35991); assay: Immunoblot of Btk phosphorylation in macrophages; type: cell-based; details: treatment with TLR agonist, FIG. 2B
T1 construct: endogenous in cells; probably mouse bone-marrow-derived macrophages
T1 sequence (P35991 whole entry): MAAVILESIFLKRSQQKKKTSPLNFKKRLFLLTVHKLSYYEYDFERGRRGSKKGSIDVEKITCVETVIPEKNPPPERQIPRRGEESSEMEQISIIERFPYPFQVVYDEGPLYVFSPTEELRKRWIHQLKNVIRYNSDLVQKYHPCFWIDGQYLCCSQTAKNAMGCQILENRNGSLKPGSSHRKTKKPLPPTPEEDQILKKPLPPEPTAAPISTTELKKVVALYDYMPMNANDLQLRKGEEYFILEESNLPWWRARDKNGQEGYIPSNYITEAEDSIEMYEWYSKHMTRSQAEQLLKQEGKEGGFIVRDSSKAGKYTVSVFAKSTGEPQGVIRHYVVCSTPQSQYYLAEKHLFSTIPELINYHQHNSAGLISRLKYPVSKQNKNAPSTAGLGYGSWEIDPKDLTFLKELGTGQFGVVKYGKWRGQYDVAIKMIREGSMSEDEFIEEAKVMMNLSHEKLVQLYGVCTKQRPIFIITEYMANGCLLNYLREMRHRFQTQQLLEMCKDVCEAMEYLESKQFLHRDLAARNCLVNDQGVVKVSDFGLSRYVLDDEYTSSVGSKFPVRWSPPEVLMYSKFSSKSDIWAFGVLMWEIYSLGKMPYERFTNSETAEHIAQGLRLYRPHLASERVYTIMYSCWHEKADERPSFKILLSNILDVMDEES
Source text: FIG. 2A-2D. […] Error bars represent standard deviation (FIGS. 2A, 2C and 2D).

[6] = system: calreticulin (CRT); assay: CRT phosphorylation in J774 cells expressing myc-CRT (immunoprecipitation, immunoblot); type: cell-based, mouse; details: myc-tagged CRT, FIG. 10E
Description: Immunoprecipitation. Calreticulin was immunoprecipitated from J774 cells expressing myc-CRT. J774 cells were plated 12 hrs before immunoprecipitation. Cells were treated with imiquimod (1 ug/ml) at indicated time points, and washed with pre-chilled PBS containing phosphatase inhibitors on ice. Cells were then lysed in lysis buffer (20 mM Tris-HCl, pH7.4, 150 mM NaCl, 2 mM EDTA, supplemented with 1% Triton X-100, protease inhibitor cocktail and phosphatase inhibitor cocktail). Cell lysate was incubated for 1 hr with GammaBind Plus Sepharose for preclearance and 4 hr with anti-myc antibodies at 4° C. GammaBind sepharose was added to cell lysate and incubated for 1 hr at 4° C. Beads were washed with lysis buffer. Proteins were eluted with lysis buffer containing 2% SDS and 100 mM DTT, and subjected to SDS-PAGE and immunoblotting. To detect phosphorylated CRT, the blot was incubated with biotin-labeled pT66 anti-p-Tyrosine antibody and HRP-conjugated streptavidin.

[7] = system: PC3 prostate cancer cells; assay: Flow cytometry of dissociated PC3 tumor specimens from treated NSG mice; type: in vivo, mouse; details: PC3 tumors in NSG mice; FIG. 8B
Description: Tumor engraftment and treatment. PC3 cells (human prostate cancer) were suspended in F-12K medium with 25% matrix matrigel, and injected subcutaneously on the back of 6-10 week NSG mice. Mice were treated with PBS or Hu5F9-G4 antibody by intraperitoneal injection 2 weeks after engraftment, and PBS or TLR agonists (20 μg of Poly (I:C) HMW and 20 μg of LPS) by intratumoral injection 7 weeks after engraftment when tumors reached 100 mm^3.
Tumor dissociation and FACS analyses. Tumor specimens were collected from the mice, minced to pieces smaller than 1 mm in diameter and dissociated in medium 199 with TM enzymes and DNAase at 37° C. until single-cell suspension was achieved. The cells were treated with ACK lysing buffer for lysis of red blood cells, washed twice with HBSS, filtered through 70 μm cell strainer and subjected to flow cytometry analyses. The cells were stained with anti-CD31 antibody, anti-Gr-1 antibody and sytox blue to exclude endothelial cells, neutrophils and dead cells, and with anti-F4/80 antibody for macrophages.

Row | Molecule | cell surface CRT on macrophages, cell surface biotinylation assay [3] | phagocytosis of tumor cells after treatment of macrophages with TLR agonist ([1]; BMDMs from RAG2-/-) | phagocytosis of multiple hematopoietic and solid tumor cells [4] | Btk phosphorylation in macrophages [5] | cell surface exposure of CRT on macrophages, flow cytometry [3] | also measured
1 | C=CC(=O)N1CCC[C@@H](n2nc(-c3ccc(Oc4ccccc4)cc3)c3c(N)ncnc32)C1 [ibrutinib, 1-[(3R)-3-[4-amino-3-(4-phenoxyphenyl)pyrazolo[3,4-d]pyrimidin-1-yl]piperidin-1-yl]prop-2-en-1-one] | decreased | – | – | – | – | basal level phagocytosis of cancer cells (resting macrophages) ([1]; Fc-dependent and -independent, 16 hr coculture, BMDMs from RAG2-/-, γc-/- mice, FIG. 10A): inhibitory effect; phagocytosis induced by TLR agonists, combined with inhibitor ([1]; SW620 (control or CD47KO), BMDMs from RAG2-/-, γc-/- mice, FIG. 2A): significantly attenuated; time to maximal inhibition of phagocytosis on blockade of Btk ([1]; SW620 CD47KO target cells, BMDMs from NSG mice, FIG. 2D): ≤ 1 h; phagocytosis of SW620 cells by human PBMC-derived macrophages [2]: inhibited phagocytosis; imiquimod-induced cell surface expression of CRT on macrophages with ibrutinib ([3]; imiquimod+ibrutinib, flow cytometry, FIG. 10B): reversed
2 | lipopolysaccharide [LPS] | – | promoted phagocytosis | dramatically enhanced | stimulated Btk to be phosphorylated | Increased cell surface exposure | phagocytic ability of macrophages ([1]; SW620 (PBS- or Hu5F9-G4-treated), BMDMs from NSG mice, flow cytometry plots, FIG. 6C): strongly enhanced
3 | CC(C)Cn1cnc2c(N)nc3ccccc3c21 [imiquimod, Imiquimod] | increased | promoted phagocytosis | dramatically enhanced | stimulated Btk to be phosphorylated | Increased cell surface exposure | duration of Btk-activation for maximal phagocytic ability of macrophages ([1]; SW620 CD47KO target cells, BMDMs from NSG mice, FIG. 2C): 16 h; cell surface exposure of CRT on macrophages, flow cytometry ([3]; listed as Imiquimod): increased cell surface expression; time of treatment to maximal level of CRT phosphorylation [6]: 30 min
4 | polyinosinic-polycytidylic acid-high molecular weight [Poly (I:C) HMW] | – | promoted phagocytosis | dramatically enhanced | stimulated Btk to be phosphorylated | Increased cell surface exposure | –
5 | B1 | – | – | – | – | – | phagocytosis of SW620 cells on blockade of CD47 ([1]; BMDMs from RAG2-/-, γc-/- mice, FIG. 1A): induced phagocytosis
6 | B2 | – | – | – | – | – | macrophages (a1+a2) in tumor specimens [7]: 46.26%; macrophages that had phagocytosed tumor cells a2 (GFP+F4/80+), ongoing phagocytosis [7]: 39.3%; tumor cells a4 (GFP+F4/80-) in tumor specimens [7]: 40%
